Assay results taken from patent US10772884B2, “Sulphate salts of N-(3-(4-(3-(diisobutylamino)propyl)piperazin-1-yl)propyl)-1H-benzo[d]imidazol-2-amine, preparation thereof and use of the same” (ALZPROTECT, priority 2012, dated 2020).
Where a name gives a salt, the structure may show the parent alone. One block for each molecule: values may come before it.

Tests used:
[1] = XRPD analysis of crystallinity; type: physicochemical; settings: powder, ambient
Description: X-ray powder diffraction (XRPD) analysis is performed on a Brüker—AXS D8 Advance diffractometer, using a copper anti-cathode, a mono-crystalline silicon sample holder and a position sensitive detector. Instrument operating conditions for X-rays pattern acquisition are described in Table 2.
The powder sample is dispersed on the silicon sample holder in a way to avoid preferred orientation (not randomly oriented crystals) and to ensure planarity of the specimen surface.

[2] = Dynamic vapour sorption (DVS) with water; type: physicochemical
Description: Dynamic vapour sorption (DVS) analyses with water were performed on a DVS-Intrisic incubator from SMS Ltd, equipped with DVS-Intrisic Control Software 1.0.
A sample of about 5 to 10 mg, placed in an aluminium pan holder, was submitted to a full-cycle analysis (sorption followed by desorption) under the conditions described in Table 3.
The sample was pre-dried under a stream of dry filtered air until a stable mass was obtained. Relative humidity was then increased by 5% increments. At each step, the sample was allowed to increase until equilibrium is reached (dm/dt criterion), then relative humidity was increased further. Relative humidity was ramped up to 95%. After equilibration at this stage, desorption is started in a similar stepwise manner, with a sample weight allowed to stabilize after each incremental humidity decrease step.
DVS analysis was carried out according to the method described above.

[3] = DSC analysis of crystalline phase; type: physicochemical; settings: DSC endotherm
Description: DSC spectra. TA Instrument, DSC Q10.
DSC spectra were recorded on a TA DSC Q10 instrument within a temperature range of −10° C. to 300° C. or 400° C. and with 10° C. increments.

[4] = salt formation results (physical form); type: physicochemical
Description: The hydrochloride, hydrobromide, acetate, tartrate, fumarate, malate, oxalate and sulphate salts of N-(3-(4-(3-(diisobutylamino)propyl)piperazin-1-yl)propyl)-1H-benzo[d]imidazol-2-amine were prepared according to procedures similar to those described in the previous examples or standard salt formation methods well known in the art.

[5] = sample left standing open to the air (hygroscopicity, stability); type: physicochemical; settings: listed as chloride salt
Source text: Both sulphate salts precipitated as solids. They were found stable when left open to the air. In contrast to the chloride salt, no hygroscopicity issue was observed.

SH-5Y5Y cell line = assay: cytotoxicity CC50; type: cell-based, human; settings: concentration at which 50% of plated cells remain alive
Description: In addition, it is remarked that no cytotoxicity was found for this sulphate salt, its CC50 on SH-5Y5Y cell line was found greater than 30 μM. CC50 is defined herein as the concentration at which 50% of plated cells remain alive.

water solubility = type: physicochemical
[6] = tested on: APP metabolism in SH-5Y5Y cells (human neuroblastoma cell line overexpressing wild type human APP); assay: In vitro APP metabolism assay; type: cell-based; settings: 0.3, 1, 3 and 10 μM, 24 h
Description: In Vitro APP Metabolism Assay
This assay was performed using SH-5Y5Y cells (human neuroblastoma cell line overexpressing wild type human APP) which were treated for 24 h with the sulphate salt of example 2. This test was carried out at four different compound concentrations of 0.3, 1, 3 and 10 μM. Quantification of different metabolites was achieved by western-blot analysis. CTFa, CTFβ and AICD were analysed using anti-actin ((I-19) (SC-1616 Santa Cruz Biotechnology; 1:1000 from 200 μg/ml stock) as an internal control and anti-C term APP antibody (1:250000 in washing buffer). Protein concentrations were determined by the BCA Protein Assay Kit (Thermo Scientific). Samples (20 μg total protein) were separated by 16% SDS-PAGE according to the molecular weight of each protein, and transferred to nitrocellulose membranes.

Tau protein = assay: Chronic treatment 3-months, Tau protein phosphorylation; type: in vivo, C57Bl6 female mice; settings: mice, 0.5, 1 or 3 mg/kg in drinking water, brain tissues
Source text: Chronic Treatment: 3-Months
(§1) Neuropathological disorders are also characterized by abnormal phosphorylation of Tau protein (AT100). Hyperphosphorylation of the tau protein (on specific sites) can result in the intracellular accumulation of neurofibrillary tangles (NFTs), involved in the pathogenesis of Alzheimer's disease and other tauopathies. One axis of the study was thus to study the effect of the sulphate salt of example 2 on this abnormal phosphorylation. In parallel, such effect was also monitored with regards to the non-pathological phosphorylation of Tau protein (AT8) which should remain unaffected. Another axis of this study was thus the impact of the sulphate salt of example 2 on oxidative stress (OS). Therefore, levels of lipidic peroxidation, a well known marker for the evaluation of oxidative stress, were determined. Indeed, oxidative stress (OS), by the generation of toxic reactive oxygen species (ROS) and oxidative damage (oxidation of vital cellular components as lipids, proteins and DNA), is believed to be involved in the pathogenesis of neurodegenerative disorders. […]
4-month old C57Bl6 female mice were provided with 0.5, 1 or 3 mg/kg of compound of example 2 dissolved in their drinking water. […] Volume consumed was calculated by weighing each bottle after each week and the remaining volume was discarded. […]

APP metabolism [7] = assay: In vivo APP metabolism assay, chronic treatment 1-month; parameters: species or system Sprague Dawley rats; settings: rats, 1 or 10 mg/kg/day in drinking water, one month
Description: (§2) In vivo experiments were carried out on 4-month old C57Bl6 female mice or 2-month old Sprague Dawley rats.
Chronic Treatment: 1-Month
Rats were provided for one month with 1 or 10 mg/kg/day of the compound of example 2 dissolved in their drinking water. […] The animals were sacrificed after one month and levels of CTFα and CTFβ in the frontal cortex (FC) and/or the hippocampus (HIP) were measured by western-blot analysis as previously described. Dose dependent results are shown on FIGS. 22-a and 22-b. […] The frontal cortex is generally the first region of the brain to be affected by amyloid plaques formation in abnormal APP metabolism related diseases while the hippocampus, which is highly involved in memory and recollection processes, is latterly but severely affected. The sulphate salt of example 2 thus has very positive effect on APP metabolism in both the frontal cortex and the hippocampus and could is therefore of interest in the treatment of neurodegenerative diseases, in particular for both early and advanced stages of abnormal APP metabolism related diseases.

lipid peroxidation = assay: Chronic treatment 3-months, LPO levels (modified FOX assay); type: in vivo, C57Bl6 female mice; settings: mice, 0.5, 1 or 3 mg/kg in drinking water, hippocampi
Source text: as §1, with “determined.” for “determined. Indeed, oxidative stress (OS), by the generation of toxic reactive oxygen species (ROS) and oxidative damage (oxidation of vital cellular components as lipids, proteins and DNA), is believed to be involved in the pathogenesis of neurodegenerative disorders.”
4-month old C57Bl6 female mice were provided with 0.5, 1 or 3 mg/kg of compound of example 2 dissolved in their drinking water. […] Volume consumed was calculated by weighing each bottle after each week and the remaining volume was discarded.
LPO levels measurements: the level of lipid peroxidation in hippocampi is determined as cumene hydroperoxide (CHP) equivalents and expressed as CHP equivalents per wet weight of tissue and as percentage of control group data following the modified FOX assay.

APP metabolism [8] = assay: In vivo APP metabolism assay, acute treatment 24 h p.o.; parameters: species or system C57Bl6 female mice
Description: In Vivo APP Metabolism Assay
as §2
Acute treatment: 24 h p.o.
C57Bl6 female mice were treated per os (gavage) with vehicle or compound (example 2) at 0.25, 0.5, 1, 3 and 6 mg/kg mg/kg (n=6 per group) for 24 h. The product was administered with a disposable Rodent Feeding Tube ECIMED Ref # V0104030 (4 mm×30 mm). The animals were sacrificed after 24 h, the brain was immediately removed for dissection. Levels of CTFα in the frontal cortex (FC) and/or the hippocampus (HIP) were measured by western-blot analysis as previously described. Briefly, tissues were homogenized with […], of lysis buffer (10 mL of Laemmli Pre-Lysis Buffer and 1 tablet of Protease Inhibitor cocktail Complete Mini (Roche)) in a potter. After sonication (5 min), homogenates were centrifuged at 1600 rpm 5 min 4° C. Supernatants were aliquoted and stored at −80° C. before western blot analysis.

Molecule: CC(C)CN(CCCN1CCN(CCCNc2nc3ccccc3[nH]2)CC1)CC(C)C [Example 1, N-(3-(4-(3-(diisobutylamino)propyl)piperazin-1-yl)propyl)-1H-benzo[d]imidazol-2-amine, 2.9 eq sulphate salt]
crystallinity by XRPD ([1]; sulphate salt): well good crystalline phase

Molecule: CC(C)CN(CCCN1CCN(CCCNc2nc3ccccc3[nH]2)CC1)CC(C)C.O.O.O=S(=O)(O)O [di-hydrated form of example 3, di-hydrated form of N-(3-(4-(3-(diisobutylamino)propyl)piperazin-1-yl)propyl)-1H-benzo[d]imidazol-2-amine, 1 eq sulphate salt]
stability and hygroscopicity in second DVS cycle ([2]; 25° C., second sorption/desorption cycle): stable and non hygroscopic
water uptake for the di-hydrated form, experimentally determined ([2]; DVS 25° C.): 6.7%
theoretical water uptake for the di-hydrated form ([2]; calculated): 6.8%

Molecule: CC(C)CN(CCCN1CCN(CCCNc2nc3ccccc3[nH]2)CC1)CC(C)C.O=C(O)C(=O)O.O=C(O)C(=O)O.O=C(O)C(=O)O.O=C(O)C(=O)O [4 eq oxalate salt, N-(3-(4-(3-(diisobutylamino)propyl)piperazin-1-yl)propyl)-1H-benzo[d]imidazol-2-amine, 4 eq oxalate salt, reference compound]
crystallinity by XRPD [1]: little or poor crystallinity
crystalline phase by DSC [3]: most well shaped and defined endotherm

Molecule: CC(C)CN(CCCN1CCN(CCCNc2nc3ccccc3[nH]2)CC1)CC(C)C [Example 4, N-(3-(4-(3-(diisobutylamino)propyl)piperazin-1-yl)propyl)-1H-benzo[d]imidazol-2-amine, 2 eq sulphate salt]
crystallinity by XRPD [1]: good crystallinity

Molecule: CC(C)CN(CCCN1CCN(CCCNc2nc3ccccc3[nH]2)CC1)CC(C)C.O=S(=O)(O)O [Example 3, N-(3-(4-(3-(diisobutylamino)propyl)piperazin-1-yl)propyl)-1H-benzo[d]imidazol-2-amine, 1 eq sulphate salt]
crystallinity by XRPD [1]: good crystallinity
mass lost upon drying ([2]; 25° C./0% RH): 0.18%
remaining amount of water upon desorption ([2]; 25° C./0% RH): 4.6%
hygroscopicity (criterion: more than 2% by weight water uptake) ([2]; 25° C./60% RH): not hygroscopic
water uptake upon sorption ([2]; 25° C./60% RH, compared to sample mass after initial drying at 0% RH): 0.7%
residual water remaining upon desorption ([2]; 25° C./75% RH as printed, interval 95 to 90% RH): 10%
hysteresis (adsorbed water retained upon desorption) ([2]; 25° C./75% RH, interval 75 to 10% RH): up to 6.7%
water uptake upon sorption ([2]; 25° C./80% RH, compared to sample mass after initial drying at 0% RH): 1.5%
water uptake upon sorption ([2]; 25° C./90% RH, compared to sample mass after initial drying at 0% RH): 9.7%
water vapour uptake upon sorption ([2]; 25° C./95% RH, compared to sample mass after initial drying at 0% RH): 19.4%

Molecule: CC(C)CN(CCCN1CCN(CCCNc2nc3ccccc3[nH]2)CC1)CC(C)C [Example 2, N-(3-(4-(3-(diisobutylamino)propyl)piperazin-1-yl)propyl)-1H-benzo[d]imidazol-2-amine, 1.8 eq sulphate salt]
CC50 (SH-5Y5Y cell line): > 30 µM
water solubility (water solubility): remarkable high solubility
Aβ1-42 levels [6]: decreased level
sAPPα levels [6]: dose dependent increased levels
AICD levels ([6]; western-blot): dose dependent increased levels
CTFα levels ([6]; western-blot): dose dependent increased levels
AT8 levels (normal Tau protein phosphorylation) (Tau protein): not affecting
AT100 levels (pathological Tau protein phosphorylation) (Tau protein): decreases
CTFα levels in the frontal cortex (APP metabolism [7]): increasing concentrations
CTFβ levels in the hippocampus (APP metabolism [7]): decreasing concentrations
LPO levels (lipid peroxidation): significant decrease
CTFα levels in the frontal cortex, comparison to the oxalate salt of WO2006/051489 (APP metabolism [8]; mice, 6 mg/kg per os): superior efficiency
CTFα levels in the frontal cortex (APP metabolism [8]; mice, 0.25, 0.5, 1, 3 and 6 mg/kg per os): increasing concentrations

The next lines start with the values.

crystalline phase by DSC [3]: not crystalline
Physical form ([4]; Acid eq. added 1): Not crystalline^2
Molecule: Tartrate

Physical form ([4]; Acid eq. added 1): Crystalline powder (colorless
Physical form ([4]; Acid eq. added 2): Crystalline powder (colorless
Molecule: Sulphate

Physical form ([4]; Acid eq. added 1): No solid formed, oily residue
Physical form ([4]; Acid eq. added 2): No solid formed, oily residue
Molecule: CC(=O)O [Acetate]

hygroscopicity [5]: very hygroscopic
Molecule: Cl [Chloride]

Physical form ([4]; Acid eq. added 2): Gum
Physical form ([4]; Acid eq. added 3): Gum
Physical form ([4]; Acid eq. added 4): Crystalline powder
Molecule: Oxalate

crystalline phase by DSC [3]: not crystalline
Physical form ([4]; Acid eq. added 1): Not crystalline^2
Molecule: Fumarate

Physical form ([4]; Acid eq. added 1): Powder
Molecule: Malate
